From patent US4576952A, “Pyrazolopyridine derivatives and their use as anti-inflammatory and/or anti-allergic agents” (Beecham Group p.l.c., priority 1984, dated 1986)

Columns and labels:
[1] = tested on: cantharidin mouse ear; experiment: Mouse Cantharidin Screen (topical anti-inflammatory activity, mouse ear); assay type: in vivo; conditions: Mouse Cantharidin Data (24 h)
Method: Compounds were tested for topical anti-inflammatory activity in a cantharidin mouse ear screen, modified from Swingle et al [Swingle, K. F., Reiter, M. J. and Schwartzmiller, D. H., Arch. Int. Pharmacodyn., (1981), 254, 168-176].
25 μg cantharidin (in 10 μl THF/MeOH) was applied to both ears. Compound, in the same solvent, was applied at the same time, to the left ear only. Ears were weighed 24 h after cantharidin application. Percentage inhibition of the acute inflammatory swelling refers to the increase in weight of left ears (cantharidin plus compound) compared with solvent-treated negative controls, as a proportion of the increase in weight of right ears (cantharidin alone) over similar controls.

[2] = tested on: mouse sensitised to oxazolone; experiment: Mouse Oxazolone Screen (topical anti-inflammatory activity); assay type: in vivo; conditions: ear, compound 1 h before oxazolone challenge, ear weights 24 h later, r^2 =0.96
Method: Compounds were tested for topical anti-inflammatory activity in a screen using the mouse sensitised to oxazolone, by a method modified from that of Dietrich and Hess [Dietrich, F. M., and Hess, R., Int. Arch. Allergy, (1970), 38, 246-259].
Mice were sensitised with oxazolone (2 mg in 20 μl ethanol) on a shaved area of the abdomen. Five days later, the animals received 10 μl THF/MeOH (1:1 v/v) on the right ear, and the test compound in the same solvent on the left ear. One hour later, the animals were challenged with 100 μg oxazolone in 10 μl acetone on each ear. Ear weights were measured 24 h later. Percentage inhibition of the inflammatory swelling refers to the increase in weight of left ears (oxazolone plus compound) compared with solvent-treated negative controls, as a proportion of the increase in weight of right ears (oxazolone alone) over similar controls.

[3] = tested on: 5-Lipoxygenase; experiment: RBL-1 5-Lipoxygenase Screen; assay type: biochemical; conditions: 20 μM; 10,000 g supernatant from RBL-1 cells, 29° C.
Method: 5-Lipoxygenase enzyme was prepared as a 10,000 g supernatant from RBL-1 cells by the method of Jakschik [Jakschik, B. A., Sun, F. F., Lee, L. M. and Steinhoff, M. M., 1980, Biochem. Biophys. Res. Comm. 95, 103]. The 10,000 g supernatant was diluted with homogenization buffer to the equivalent of 1.5-2.5×10^7 cells ml^-1 and made 2 mM with respect to CaCl2. Aliquots of 0.5 ml were then dispensed into tubes, and incubated at 29° C. with 5 γl ethanol or compound in ethanol at the desired concentration for 2 min. Then [1-^14 C] arachidonic acid was added in buffer to give a final concentration of 6.3 μm and 0.2 μCi per incubation, and the reaction continued at 29° C. for 2 min. The reaction was terminated by adding 1 ml of acetone and cooling on ice, 0.5 ml of ice-cold saline and 10 μl of 2N formic acid were added, and the mixture was extracted with 2×2 ml of chloroform. The extract was stored under N2 at -20° C. until analysis by chromatography. Activity was measured as the percentage of total radioactivity found in 5-HETE and 5,12-diHETE, and inhibition calculated as the decrease in formation of the sum of these two species in compound-treated incubates relative to control incubates.

[4] = tested on: mice; conditions: in mice; J. Heterocycl. Chem. 1971, 8(6), 1035-7; cited from earlier work

Cc1cc(Nc2cccc(O)c2)c2[nH]ncc2n1 [Example 5, 7-(3-Hydroxyanilino)-5-methyl-1H-pyrazolo[4.3-b]pyridine]
% Inhibition ([1]; 500 μg/ear): 49%

Cc1cc(Nc2ccc(C#N)cc2)c2[nH]ncc2n1 [Example 1, 7-(4-Cyanoanilino)-5-methyl-1H-pyrazolo[4,3-b]pyridine]
% Inhibition ([1]; 300 μg/ear): 29%

Cc1cc(Nc2ccc(O)cc2)c2[nH]ncc2n1 [Example 4, 7-(4-Hydroxyanilino)-5-methyl-1H-pyrazolo[4,3-b]pyridine]
ED50 [2]: 240 μg/ear
% Inhibition ([1]; 200 μg/ear): 71%
inhibition (decrease in formation of 5-HETE and 5,12-diHETE) [3]: 66%

CC(=O)N(C(C)=O)c1cc(C)nc2c(C)n[nH]c12 [compound wherein R is NAc2]
CNS antidepressant activity [4]: CNS antidepressant activity

Cc1cc(Nc2cccc(O)c2)c2c(cnn2C)n1 [Example 8, 1,5-Dimethyl-7-(3-hydroxyanilino)-1H-pyrazolo[4,3-b]pyridine]
% Inhibition ([1]; 278 μg/ear): 31%
